Reference: publication PMC2390898 (Antiviral Research, 2006)
Like-named read-outs stand apart in the source and are kept apart here.

Columns and labels:
[1] = test system: RTA; assay type: cell-based, Kaposi's sarcoma-associated herpesvirus (KSHV)
[2] = test system: LANA; assay type: cell-based, Kaposi's sarcoma-associated herpesvirus (KSHV)
[3] = test system: RTA; assay type: cell-based, Kaposi's sarcoma-associated herpesvirus (KSHV); remark: listed apart in the source
[4] = test system: RTA; assay type: cell-based, Kaposi's sarcoma-associated herpesvirus (KSHV); remark: listed apart in the source
[5] = test system: RTA; assay type: cell-based, Kaposi's sarcoma-associated herpesvirus (KSHV); remark: listed apart in the source
[6] = test system: BCBL-1 cells; conditions: for relative percentage of fluorescence intensity (cell viability): 1 h
[7] = test system: KSHV; assay type: cell-based, Kaposi's sarcoma-associated herpesvirus (KSHV)
[8] = test system: BCBL-1 cells; experiment: PMO/P-PMO uptake and persistence in BCBL-1 cells; assay type: cell-based
[9] = test system: ORF50 leader sequence (RP1 P-PMO target region)-luciferase RNA; assay type: biochemical, Kaposi's sarcoma-associated herpesvirus (KSHV)
[10] = test system: LP1/luciferase RNA; experiment: Cell-free reporter assay with LP1/luciferase RNA; assay type: biochemical, Kaposi's sarcoma-associated herpesvirus (KSHV); conditions: data not shown

H-RRRRRFFRRRRC-NH2 [mRP1]
change in RTA expression by Western blot [1]: no effect

CC(=O)N1C[C@@H](COP(=O)(N(C)C)N2C[C@@H](COP(=O)(N(C)C)N3C[C@@H](COP(=O)(N(C)C)N4C[C@@H](COP(=O)(N(C)C)N5C[C@@H](COP(=O)(N(C)C)N6C[C@@H](COP(=O)(N(C)C)N7C[C@@H](COP(=O)(N(C)C)N8C[C@@H](COP(=O)(N(C)C)N9C[C@@H](COP(=O)(N(C)C)N%10C[C@@H](COP(=O)(N(C)C)N%11C[C@@H](COP(=O)(N(C)C)N%12C[C@@H](COP(=O)(N(C)C)N%13C[C@@H](COP(=O)(N(C)C)N%14C[C@@H](COP(=O)(N(C)C)N%15C[C@@H](COP(=O)(N(C)C)N%16C[C@@H](COP(=O)(N(C)C)N%17C[C@@H](COP(=O)(N(C)C)N%18C[C@@H](COP(=O)(N(C)C)N%19C[C@@H](COP(=O)(N(C)C)N%20C[C@@H](COP(=O)(N(C)C)N%21CCN(C(=O)CCCN%22C(=O)CC(SC[C@H](NC(=O)[C@H](CCCNC(=N)N)NC(=O)[C@H](CCCNC(=N)N)NC(=O)[C@H](CCCNC(=N)N)NC(=O)[C@H](CCCNC(=N)N)NC(=O)[C@H](Cc%23ccccc%23)NC(=O)[C@H](Cc%23ccccc%23)NC(=O)[C@H](CCCNC(=N)N)NC(=O)[C@H](CCCNC(=N)N)NC(=O)[C@H](CCCNC(=N)N)NC(=O)[C@H](CCCNC(=N)N)NC(=O)[C@@H](N)CCCNC(=N)N)C(N)=O)C%22=O)CC%21)O[C@@H](n%21cnc%22c(=O)[nH]c(N)nc%22%21)C%20)O[C@@H](n%20cnc%21c(N)ncnc%21%20)C%19)O[C@@H](n%19cc(C)c(=O)[nH]c%19=O)C%18)O[C@@H](n%18cnc%19c(N)ncnc%19%18)C%17)O[C@@H](n%17cc(C)c(=O)[nH]c%17=O)C%16)O[C@@H](n%16cnc%17c(N)ncnc%17%16)C%15)O[C@@H](n%15ccc(N)nc%15=O)C%14)O[C@@H](n%14cnc%15c(N)ncnc%15%14)C%13)O[C@@H](n%13ccc(N)nc%13=O)C%12)O[C@@H](n%12cnc%13c(N)ncnc%13%12)C%11)O[C@@H](n%11cnc%12c(N)ncnc%12%11)C%10)O[C@@H](n%10ccc(N)nc%10=O)C9)O[C@@H](n9cnc%10c(N)ncnc%109)C8)O[C@@H](n8ccc(N)nc8=O)C7)O[C@@H](n7ccc(N)nc7=O)C6)O[C@@H](n6ccc(N)nc6=O)C5)O[C@@H](n5cnc6c(N)ncnc65)C4)O[C@@H](n4cnc5c(N)ncnc54)C3)O[C@@H](n3cc(C)c(=O)[nH]c3=O)C2)O[C@@H](n2cc(C)c(=O)[nH]c2=O)C1 (stereo partly drawn) [CP1]
LANA staining by IFA after three treatments [2]: no detectable effect
change in RTA expression by Western blot [1]: no detectable change
RTA flow cytometry profile [3]: same profile as the mock treatment control
number of RTA-positive cells by IFA in BC-1 cells [4]: no effect
RTA-positive cells by IFA [5]: approximately 20%
cytotoxicity [6]: no detectable cytotoxicity
relative percentage of fluorescence intensity (cell viability) ([6]; 8 μM): 106%
relative percentage of fluorescence intensity (cell viability) ([6]; 16 μM): 107%

H-RRRRRFFRRRRC-NH2 [LP2]
LANA protein level (IFA and Western blot) [2]: caused reduction
LANA staining by IFA after three treatments [2]: much weaker
reduction in LANA protein level after the second application [2]: over 60%

tetradecanoyl phorbol acetate [TPA, reference compound]
RTA-positive cells by flow cytometry after TPA induction, no P-PMO [3]: approximately 25%
increase of KSHV viral DNA level by TPA induction, in cells [7]: 1.84 fold
increase of KSHV viral DNA level by TPA induction, in culture supernatant [7]: 2.75 fold
RTA-positive cells by IFA after TPA induction, no P-PMO [5]: approximately 20%

H-RRRRRFFRRRRC-NH2 [P-PMO-F1]
cells with green fluorescence at 24, 48 and 72 h (fluorescence microscopy) ([8]; BCBL-1 cells treated 4 h with 8 μM, rinsed, harvested 24, 48 and 72 h later): almost all cells
cells with green fluorescence at 24, 48 and 72 h (flow cytometry) ([8]; BCBL-1 cells treated 4 h with 8 μM, rinsed, harvested 24, 48 and 72 h later, all three time points): over 95%
fluorescence of cells by flow cytometry ([8]; BCBL-1 cells, 8 μM, treated for 4 h, flow cytometry, 525 nm band pass filter): high percentage
green fluorescence in treated cells at day 7 ([8]; BCBL-1 cells, day 7 after treatment, reduced intensity, data not shown): still observed

H-RRRRRFFRRRRC-NH2 [LP1]
effect on luciferase translation (negative control P-PMO) [9]: did not have any effect
change in LANA level, recurrent application [2]: no change
effect on LANA expression, single application (IFA and Western blot) [2]: no effect
inhibition of translation in LP1/luciferase reporter system [10]: effective at inhibiting translation
